Reference: ChEMBL document CHEMBL3879891, “Hydrazone compounds and their use” (2011)

Columns and labels:
[1] = molecular target: T1, Transient receptor potential cation channel subfamily M member 5 (Mus musculus) (UniProt Q9JJH7); assay: Activation of TRPM5 in mouse GLUTag cells assessed as induction of 0.3 mM glucose-mediated GLP-1 secretion after 2 hrs by ELISA; type: cell-based
T1 sequence (whole entry): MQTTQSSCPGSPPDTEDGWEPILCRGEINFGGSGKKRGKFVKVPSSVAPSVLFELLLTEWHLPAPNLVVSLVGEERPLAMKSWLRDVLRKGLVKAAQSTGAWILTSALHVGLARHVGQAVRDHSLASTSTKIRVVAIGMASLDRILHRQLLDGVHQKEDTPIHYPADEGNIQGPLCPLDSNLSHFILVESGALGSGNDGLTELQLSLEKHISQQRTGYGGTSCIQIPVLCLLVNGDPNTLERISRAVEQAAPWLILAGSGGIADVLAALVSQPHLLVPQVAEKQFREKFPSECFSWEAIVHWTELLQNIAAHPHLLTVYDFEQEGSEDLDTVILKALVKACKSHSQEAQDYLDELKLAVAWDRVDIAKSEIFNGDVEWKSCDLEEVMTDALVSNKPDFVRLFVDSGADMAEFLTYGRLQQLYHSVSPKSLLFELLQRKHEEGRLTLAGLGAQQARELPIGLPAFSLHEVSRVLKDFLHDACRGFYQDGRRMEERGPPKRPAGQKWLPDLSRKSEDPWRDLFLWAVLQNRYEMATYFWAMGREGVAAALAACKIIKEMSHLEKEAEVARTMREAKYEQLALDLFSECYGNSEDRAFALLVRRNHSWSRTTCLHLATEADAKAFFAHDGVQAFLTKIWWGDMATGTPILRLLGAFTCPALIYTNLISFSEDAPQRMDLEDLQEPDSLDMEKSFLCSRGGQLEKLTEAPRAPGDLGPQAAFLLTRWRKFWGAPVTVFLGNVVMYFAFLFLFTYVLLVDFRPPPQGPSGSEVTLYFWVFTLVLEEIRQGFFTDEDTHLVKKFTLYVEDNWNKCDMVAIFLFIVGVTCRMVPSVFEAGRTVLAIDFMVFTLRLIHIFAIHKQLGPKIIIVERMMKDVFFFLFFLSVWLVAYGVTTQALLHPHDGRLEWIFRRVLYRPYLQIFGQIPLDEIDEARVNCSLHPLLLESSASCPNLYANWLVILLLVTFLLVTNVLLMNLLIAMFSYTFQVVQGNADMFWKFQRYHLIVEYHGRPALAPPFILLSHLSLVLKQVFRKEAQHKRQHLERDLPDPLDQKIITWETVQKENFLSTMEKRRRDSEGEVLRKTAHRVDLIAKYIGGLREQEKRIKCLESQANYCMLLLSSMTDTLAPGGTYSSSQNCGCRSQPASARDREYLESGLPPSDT

[2] = molecular target: Transient receptor potential cation channel, subfamily M, member 5 (Rattus norvegicus) (UniProt A0A8I6AG64); assay: Activation of TRPM5 in Sprague-Dawley rat primary islets assessed as induction of 12 mM glucose-mediated insulin secretion after 3 hrs by ELISA
[3] = molecular target: T1, Transient receptor potential cation channel subfamily M member 5 (Mus musculus); assay: Activation of TRPM5 in SV40 expressing transgenic mouse Beta-TC-6 cells assessed as induction of 1 mM glucose-mediated insulin secretion after 2 hrs by ELISA

Measured: Activity

Transient receptor potential cation channel, subfamily M, member 5 (Rattus norvegicus), sequence (A0A8I6AG64 as listed by the source): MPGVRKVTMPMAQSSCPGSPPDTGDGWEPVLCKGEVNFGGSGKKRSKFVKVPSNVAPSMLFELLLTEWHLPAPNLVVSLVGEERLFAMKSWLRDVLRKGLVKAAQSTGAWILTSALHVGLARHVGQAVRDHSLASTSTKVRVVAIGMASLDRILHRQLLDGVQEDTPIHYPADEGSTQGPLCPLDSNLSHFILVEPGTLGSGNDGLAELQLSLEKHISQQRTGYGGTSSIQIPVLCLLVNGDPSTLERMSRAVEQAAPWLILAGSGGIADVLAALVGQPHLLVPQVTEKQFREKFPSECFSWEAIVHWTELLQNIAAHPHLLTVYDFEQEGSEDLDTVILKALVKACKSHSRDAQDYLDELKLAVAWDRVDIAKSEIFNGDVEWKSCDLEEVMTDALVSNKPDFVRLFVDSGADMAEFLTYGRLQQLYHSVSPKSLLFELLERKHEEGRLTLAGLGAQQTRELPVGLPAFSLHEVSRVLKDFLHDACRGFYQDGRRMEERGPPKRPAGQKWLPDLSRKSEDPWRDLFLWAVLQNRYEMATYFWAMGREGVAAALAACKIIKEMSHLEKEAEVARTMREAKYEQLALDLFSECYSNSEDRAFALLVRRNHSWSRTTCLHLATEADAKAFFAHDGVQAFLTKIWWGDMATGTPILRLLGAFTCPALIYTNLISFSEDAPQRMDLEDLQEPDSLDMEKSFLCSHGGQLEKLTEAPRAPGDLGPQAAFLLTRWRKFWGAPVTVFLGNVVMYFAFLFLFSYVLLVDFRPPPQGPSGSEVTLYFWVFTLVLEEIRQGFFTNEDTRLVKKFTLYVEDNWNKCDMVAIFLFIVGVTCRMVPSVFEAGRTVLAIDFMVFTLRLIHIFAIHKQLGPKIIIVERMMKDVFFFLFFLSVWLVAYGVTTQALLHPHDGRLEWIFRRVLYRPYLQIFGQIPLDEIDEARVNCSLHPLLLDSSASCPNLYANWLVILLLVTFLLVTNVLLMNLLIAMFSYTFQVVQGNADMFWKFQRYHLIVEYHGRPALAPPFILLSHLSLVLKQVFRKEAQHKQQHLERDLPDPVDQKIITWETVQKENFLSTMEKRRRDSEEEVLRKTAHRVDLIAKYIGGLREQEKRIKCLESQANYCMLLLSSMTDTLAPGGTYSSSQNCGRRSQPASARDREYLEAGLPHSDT

Cc1cc(/C=N/NC(=O)[C@@H]2C[C@H]2c2ccccc2)cc2cccnc12 (relative stereo)
active: [1] Dose-dependent effect | [2] Dose-dependent effect | [3] Dose-dependent effect
